Experimental data reported in patent US12466839B2, “Allosteric AKT inhibitors for use in the treatment of Hereditary Hemorrhagic Telangiectasia” (VADERIS THERAPEUTICS AG, priority 2020, dated 2025).

What was measured:
[1] = test system: angiogenesis in C57Bl/6J mice retinas; assay: Neonatal retinal angiogenesis model in wild-type mice; format: in vivo, mouse (C57Bl/6J); details: 2.5 mg·kg−1
Text: For the retinal vascular network, quantification of the number of AV shunts per mouse was done manually. […] A custom own-lab made macro allowed automatic processing of the images, using the same processing and quantification parameters. Briefly, the brightness of the images was enhanced by modifying the pixel extreme values, which depends on the specific image histogram content. A Gaussian filter was applied to reduce the intensity in homogeneities. The filter order depended on the image resolution. Next, the threshold step was computed, based on a global threshold technique such as Otsu's method or Li's method, resulting in binary image. A median filter was then applied to eliminate potential local irregularities, which could cause false branching point detection. From the binary images, the vascular density was quantified (calculated as the ratio of pixels associated with the vessels divided by the total number of pixels in the image). For the other parameters, a skeleton of the images was first computed using ImageJ, then the total vascular length was quantified using the Measure Skeleton Length plug-in from ImageJ. The number of branch points was extracted from the Analyze Skeleton plug-in of ImageJ. All results were transferred to Microsoft Office Excel software and automatically rearranged using a lab custom-made program. As all images generated at each step of the processing were saved, a visual control was made to ensure that there were no aberrant results.
Statistical analysis was performed with Prism 7 software (GraphPad). For most of the experiments, 1-way ANOVA was used for multiple comparisons. Results are expressed as mean±SEM. For post hoc pairwise, the Dunnett's test was used. A value of *P<0.05, **P<0.01, ***P<0.001 or ****P<0.0001 denotes statistical significance. An in-group variation of around 15% in parameters related to blood vessel architecture changes has been previously observed by the inventors, therefore a difference between controls and mutant mice of around 20-30% was anticipated. It was therefore expected that a group of 8 mice per condition would reveal statistical differences.
Eyes were fixed in 4% paraformaldehyde (PFA) in PBS at room temperature for 10 min, retinas were dissected, post-fixed in 4% PFA in PBS at 4° C. overnight then processed for immunostaining. Retinas were permeabilized in PBS, 1% BSA and 0.5% Triton X-100 at 4° C. overnight, rinsed in PBS, washed twice in PBlec (PBS, pH 6.8, 1% Triton-X-100, 0.1 mM CaCl2, 0.1 mM MgCl2, 0.1 mM MnCl2), and then incubated in biotinylated Griffonia simplicifolia lectin (isolectin B4) (B-1205, Vector Laboratories, 1:50) in PBlec at 4° C. overnight. After 5 washes in PBS, samples were incubated with streptavidin Cy-3 (PA43001, Sigma-Aldrich, 1:100) and with a-SMA (clone 1A4) (F3777, Sigma-Aldrich) conjugated with FITC diluted in PBS, 0.5% BSA, and 0.25% X-100 at 4° C. for 2 h. After washing, flat whole-mount retinas were mounted in DAKO medium (S3023, Dako). Complete high-resolution 3-dimensional rendering of whole-mount retinas was acquired using Laser Scanning Microscope SP5 or SP8 (Leica).

[2] = test system: AKT; assay: AKT inhibition in primary lung endothelial cells with complete loss of Eng expression (western blot); format: cell-based; details: Endothelial cell; lung mouse endothelial cells with complete loss of Eng expression; VEGF-A stimulation
[3] = target: T1, 5-HT2C (Homo sapiens, UniProt P28335); assay: Millipore Drug Discovery Safety and Liability Panel; format: cell-based
T1 construct: purchased Millipore

[4] = target: T2, A3 (Homo sapiens, UniProt P0DMS8); assay: as above; format: cell-based
T2 construct: purchased Millipore

[5] = target: T3, ADRA1D (DELTA2-79) (Homo sapiens, UniProt P25100); assay: as above; format: cell-based
T3 construct: purchased Millipore

[6] = target: T4, ADRA2A (Homo sapiens, UniProt P08913); assay: as above; format: cell-based
T4 construct: purchased Millipore

[7] = target: T5, ADRB2 (Homo sapiens, UniProt P07550); assay: as above; format: cell-based
T5 construct: purchased Millipore

[8] = target: T6, AT1 (Homo sapiens, UniProt P30556); assay: as above; format: cell-based
T6 construct: purchased Millipore

[9] = target: T7, CB1 (Homo sapiens, UniProt P21554); assay: as above; format: cell-based
T7 construct: purchased Millipore

[10] = target: T8, CCK2 (Homo sapiens, UniProt P32239); assay: as above; format: cell-based
T8 construct: purchased Millipore

[11] = target: T9, CCR1 (Homo sapiens, UniProt P32246); assay: as above; format: cell-based
T9 construct: purchased Millipore

[12] = target: T10, D2 (Homo sapiens, UniProt P14416); assay: as above; format: cell-based
T10 construct: purchased Millipore

[13] = target: T11, ETA (Homo sapiens, UniProt P25101); assay: as above; format: cell-based
T11 construct: purchased Millipore

[14] = target: T12, M2 (Homo sapiens, UniProt P08172); assay: as above; format: cell-based
T12 construct: purchased Millipore

[15] = target: T13, NK1 (Homo sapiens, UniProt P25103); assay: as above; format: cell-based
T13 construct: purchased Millipore

[16] = target: T14, NK3 (Homo sapiens, UniProt P29371); assay: as above; format: cell-based
T14 construct: purchased Millipore

[17] = target: T15, P2Y1 (Homo sapiens, UniProt P47900); assay: as above; format: cell-based
T15 construct: Millipore

[18] = read-out: AGONIST mean % increase in activity
[19] = read-out: ANTAGONIST mean % inhibition

T12 sequence (P08172 whole entry): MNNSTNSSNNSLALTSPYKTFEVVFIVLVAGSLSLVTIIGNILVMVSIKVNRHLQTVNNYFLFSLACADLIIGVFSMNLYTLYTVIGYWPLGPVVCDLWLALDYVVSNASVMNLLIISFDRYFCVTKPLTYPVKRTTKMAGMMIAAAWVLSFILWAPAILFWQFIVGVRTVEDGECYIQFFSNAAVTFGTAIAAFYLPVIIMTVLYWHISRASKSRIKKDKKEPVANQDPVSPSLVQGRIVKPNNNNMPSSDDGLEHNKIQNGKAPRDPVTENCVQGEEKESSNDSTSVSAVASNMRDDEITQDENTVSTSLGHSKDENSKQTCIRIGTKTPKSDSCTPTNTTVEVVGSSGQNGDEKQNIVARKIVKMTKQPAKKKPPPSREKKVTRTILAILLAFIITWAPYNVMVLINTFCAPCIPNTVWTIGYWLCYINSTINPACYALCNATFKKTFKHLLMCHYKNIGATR
T10 sequence (P14416 whole entry): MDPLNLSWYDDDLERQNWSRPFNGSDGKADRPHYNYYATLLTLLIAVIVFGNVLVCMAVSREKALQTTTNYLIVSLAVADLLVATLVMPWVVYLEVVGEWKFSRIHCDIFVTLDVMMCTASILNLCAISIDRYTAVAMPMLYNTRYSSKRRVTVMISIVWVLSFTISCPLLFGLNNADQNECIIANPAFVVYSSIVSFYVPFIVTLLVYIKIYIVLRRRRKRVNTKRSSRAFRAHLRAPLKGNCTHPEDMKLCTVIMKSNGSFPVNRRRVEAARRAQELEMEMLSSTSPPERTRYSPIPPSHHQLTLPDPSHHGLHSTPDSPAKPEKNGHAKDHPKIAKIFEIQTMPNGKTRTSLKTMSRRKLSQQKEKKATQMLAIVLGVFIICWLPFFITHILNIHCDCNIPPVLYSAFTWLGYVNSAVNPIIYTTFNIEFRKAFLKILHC
T3 sequence (P25100 with tags, fused parts or gaps limits assumed): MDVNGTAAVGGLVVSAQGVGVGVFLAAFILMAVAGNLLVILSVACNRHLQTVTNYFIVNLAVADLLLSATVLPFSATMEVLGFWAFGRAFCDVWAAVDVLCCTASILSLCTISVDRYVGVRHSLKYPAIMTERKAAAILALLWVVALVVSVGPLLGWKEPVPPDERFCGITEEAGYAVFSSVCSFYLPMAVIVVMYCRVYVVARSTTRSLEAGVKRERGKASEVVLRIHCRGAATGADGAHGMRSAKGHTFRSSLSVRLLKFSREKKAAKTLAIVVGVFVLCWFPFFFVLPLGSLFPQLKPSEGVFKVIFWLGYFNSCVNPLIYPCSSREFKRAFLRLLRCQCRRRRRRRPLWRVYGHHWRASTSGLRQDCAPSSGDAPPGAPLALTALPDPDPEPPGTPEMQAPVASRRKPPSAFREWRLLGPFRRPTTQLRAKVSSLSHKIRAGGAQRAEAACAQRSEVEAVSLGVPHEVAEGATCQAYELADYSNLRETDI
T7 sequence (P21554 whole entry): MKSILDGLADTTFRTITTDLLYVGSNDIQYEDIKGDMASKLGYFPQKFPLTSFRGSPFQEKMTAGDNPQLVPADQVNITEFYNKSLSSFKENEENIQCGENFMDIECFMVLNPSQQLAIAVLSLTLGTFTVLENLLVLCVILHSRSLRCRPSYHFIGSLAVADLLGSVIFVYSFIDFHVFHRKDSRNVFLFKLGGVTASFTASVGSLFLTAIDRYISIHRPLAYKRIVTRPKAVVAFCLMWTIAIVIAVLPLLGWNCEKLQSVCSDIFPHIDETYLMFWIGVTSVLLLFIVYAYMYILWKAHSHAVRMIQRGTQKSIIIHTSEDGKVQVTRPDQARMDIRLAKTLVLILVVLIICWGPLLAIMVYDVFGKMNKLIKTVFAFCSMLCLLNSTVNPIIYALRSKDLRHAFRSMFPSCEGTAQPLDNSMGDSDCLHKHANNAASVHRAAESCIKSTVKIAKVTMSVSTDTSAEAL
T15 sequence (P47900 whole entry, species assumed): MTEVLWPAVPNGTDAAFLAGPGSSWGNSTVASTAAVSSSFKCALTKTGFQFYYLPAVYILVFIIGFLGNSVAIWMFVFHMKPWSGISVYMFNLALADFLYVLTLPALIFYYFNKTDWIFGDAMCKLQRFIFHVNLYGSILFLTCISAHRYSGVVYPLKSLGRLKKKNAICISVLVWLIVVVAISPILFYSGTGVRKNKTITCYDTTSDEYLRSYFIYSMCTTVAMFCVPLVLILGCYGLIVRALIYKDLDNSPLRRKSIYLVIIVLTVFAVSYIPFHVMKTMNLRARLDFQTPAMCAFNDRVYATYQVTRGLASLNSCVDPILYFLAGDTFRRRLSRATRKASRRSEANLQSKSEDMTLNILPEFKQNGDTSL
T14 sequence (P29371 whole entry): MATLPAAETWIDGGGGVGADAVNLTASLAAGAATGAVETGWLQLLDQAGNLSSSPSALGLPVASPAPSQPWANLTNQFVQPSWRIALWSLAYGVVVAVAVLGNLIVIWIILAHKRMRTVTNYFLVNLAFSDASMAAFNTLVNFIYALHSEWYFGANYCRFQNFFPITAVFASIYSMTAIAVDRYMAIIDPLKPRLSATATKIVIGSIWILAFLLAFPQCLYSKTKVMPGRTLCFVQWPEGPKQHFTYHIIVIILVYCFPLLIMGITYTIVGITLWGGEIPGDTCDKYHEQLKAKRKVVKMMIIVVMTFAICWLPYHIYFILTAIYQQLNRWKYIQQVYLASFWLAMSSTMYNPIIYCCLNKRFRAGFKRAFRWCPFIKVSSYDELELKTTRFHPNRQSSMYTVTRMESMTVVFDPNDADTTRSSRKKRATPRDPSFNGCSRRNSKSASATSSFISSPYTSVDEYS
T4 sequence (P08913 whole entry): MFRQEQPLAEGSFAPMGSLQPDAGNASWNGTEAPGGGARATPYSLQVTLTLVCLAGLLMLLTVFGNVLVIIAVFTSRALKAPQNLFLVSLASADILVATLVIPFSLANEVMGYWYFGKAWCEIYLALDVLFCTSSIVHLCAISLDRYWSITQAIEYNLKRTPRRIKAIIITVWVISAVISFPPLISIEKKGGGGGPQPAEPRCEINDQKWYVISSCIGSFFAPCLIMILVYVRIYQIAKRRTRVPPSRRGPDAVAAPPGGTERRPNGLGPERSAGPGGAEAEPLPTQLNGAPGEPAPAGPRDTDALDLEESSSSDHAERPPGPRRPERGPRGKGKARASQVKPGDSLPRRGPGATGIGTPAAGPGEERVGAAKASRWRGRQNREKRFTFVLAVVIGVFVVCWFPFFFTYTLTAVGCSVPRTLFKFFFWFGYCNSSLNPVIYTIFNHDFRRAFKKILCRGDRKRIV
T11 sequence (P25101 21-427): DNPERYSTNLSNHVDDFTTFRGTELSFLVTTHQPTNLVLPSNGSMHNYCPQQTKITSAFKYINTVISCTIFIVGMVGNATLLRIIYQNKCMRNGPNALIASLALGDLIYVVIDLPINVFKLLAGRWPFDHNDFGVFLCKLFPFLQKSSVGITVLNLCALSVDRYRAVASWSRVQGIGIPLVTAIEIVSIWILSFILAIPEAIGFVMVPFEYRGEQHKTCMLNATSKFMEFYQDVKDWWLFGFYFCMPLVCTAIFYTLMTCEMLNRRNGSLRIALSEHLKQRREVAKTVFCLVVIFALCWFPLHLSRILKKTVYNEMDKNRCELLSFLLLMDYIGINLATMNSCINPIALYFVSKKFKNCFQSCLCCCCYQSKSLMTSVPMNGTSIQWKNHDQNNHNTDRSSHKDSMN
T1 sequence (P28335 33-458, species assumed): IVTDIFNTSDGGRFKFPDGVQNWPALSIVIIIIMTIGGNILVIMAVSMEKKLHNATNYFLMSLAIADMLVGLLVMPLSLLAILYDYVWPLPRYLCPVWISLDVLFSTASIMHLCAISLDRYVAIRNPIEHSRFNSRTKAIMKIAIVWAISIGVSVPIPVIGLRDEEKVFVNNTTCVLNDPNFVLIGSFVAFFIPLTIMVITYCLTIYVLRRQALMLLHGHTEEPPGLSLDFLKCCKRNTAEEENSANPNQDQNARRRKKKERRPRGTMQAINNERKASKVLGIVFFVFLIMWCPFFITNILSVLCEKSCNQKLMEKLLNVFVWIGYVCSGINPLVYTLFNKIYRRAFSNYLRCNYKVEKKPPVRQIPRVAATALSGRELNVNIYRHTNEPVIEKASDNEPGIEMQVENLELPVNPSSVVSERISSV
T8 sequence (P32239 whole entry): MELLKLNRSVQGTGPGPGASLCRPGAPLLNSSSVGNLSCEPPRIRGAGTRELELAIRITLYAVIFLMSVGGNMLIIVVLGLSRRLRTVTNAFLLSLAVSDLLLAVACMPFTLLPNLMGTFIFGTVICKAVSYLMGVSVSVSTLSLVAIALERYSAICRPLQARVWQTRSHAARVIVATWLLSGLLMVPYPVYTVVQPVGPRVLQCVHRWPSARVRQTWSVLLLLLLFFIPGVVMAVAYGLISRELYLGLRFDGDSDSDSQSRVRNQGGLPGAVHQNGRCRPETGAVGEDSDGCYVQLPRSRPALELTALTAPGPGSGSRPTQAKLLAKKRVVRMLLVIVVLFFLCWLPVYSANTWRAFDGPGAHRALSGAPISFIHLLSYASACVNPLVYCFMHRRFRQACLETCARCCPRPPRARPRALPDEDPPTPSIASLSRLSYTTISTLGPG
T9 sequence (P32246 whole entry): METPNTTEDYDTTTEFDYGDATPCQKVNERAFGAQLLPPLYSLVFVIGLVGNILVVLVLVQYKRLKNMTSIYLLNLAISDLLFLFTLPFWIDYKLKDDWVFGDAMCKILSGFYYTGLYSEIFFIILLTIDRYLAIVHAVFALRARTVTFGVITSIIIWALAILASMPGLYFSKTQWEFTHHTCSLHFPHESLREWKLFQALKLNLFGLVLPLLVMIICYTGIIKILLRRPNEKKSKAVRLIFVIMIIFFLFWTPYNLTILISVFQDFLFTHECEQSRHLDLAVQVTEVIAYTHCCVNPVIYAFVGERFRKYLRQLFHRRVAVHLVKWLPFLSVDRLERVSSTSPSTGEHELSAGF

Compound: CCN1C(=O)COc2nc(-c3ccc(C4(N)CC(O)C4)cc3)c(-c3ccccc3)cc21.O=C(O)C(O)C(O)C(=O)O [VAD044, 6-(4-(1-amino-3-hydroxycyclobutyl)phenyl)-1-ethyl-7-phenyl-1H-pyrido[2,3-b][1,4]oxazin-2(3H)-one L-tartrate]
- impact on normal angiogenesis [1]: little or no impact on normal angiogenesis
- IC50 [2]: 93 nM
- activation at 10 µM [3, 18]: 0.8%
- inhibition at 10 µM [3, 19]: 21.9%
- activation at 10 µM [4, 18]: 0.2%
- inhibition at 10 µM [4, 19]: 28.5%
- activation at 10 µM ([5]; ADRA1D (DELTA2-79), 10 μM, read-out: AGONIST mean % increase in activity): -0.1%
- inhibition at 10 µM [5, 19]: 7%
- activation at 10 µM ([6]; ADRA2A, 10 μM, read-out: AGONIST mean % increase in activity): -0.2%
- inhibition at 10 µM [6, 19]: 11.8%
- activation at 10 µM ([7]; ADRB2, 10 μM, read-out: AGONIST mean % increase in activity): 0.8%
- inhibition at 10 µM [7, 19]: 6.1%
- activation at 10 µM ([8]; AT1, 10 μM, read-out: AGONIST mean % increase in activity): -0.1%
- inhibition at 10 µM [8, 19]: 5.4%
- activation at 10 µM ([9]; CB1, 10 μM, read-out: AGONIST mean % increase in activity): -0.5%
- inhibition at 10 µM [9, 19]: -4.1%
- activation at 10 µM ([10]; CCK2, 10 μM, read-out: AGONIST mean % increase in activity): -0.2%
- inhibition at 10 µM [10, 19]: 8.3%
- activation at 10 µM ([11]; CCR1, 10 μM, read-out: AGONIST mean % increase in activity): 0.2%
- inhibition at 10 µM [11, 19]: 9.5%
- activation at 10 µM ([12]; D2, 10 μM, read-out: AGONIST mean % increase in activity): -1.1%
- inhibition at 10 µM [12, 19]: -0.2%
- activation at 10 µM ([13]; ETA, 10 μM, read-out: AGONIST mean % increase in activity): -0.4%
- inhibition at 10 µM [13, 19]: 10.5%
- activation at 10 µM [14, 18]: 0%
- inhibition at 10 µM [14, 19]: 20.6%
- activation at 10 µM ([15]; NK1, 10 μM, read-out: AGONIST mean % increase in activity): -1.4%
- inhibition at 10 µM [15, 19]: 2.4%
- activation at 10 µM ([16]; NK3, 10 μM, read-out: AGONIST mean % increase in activity): -0.4%
- inhibition at 10 µM [16, 19]: 16.9%
- AGONIST mean % increase in activity ([17]; 10 μM): 1%
- inhibition at 10 µM [17, 19]: 50.6%
